Like-named read-outs stand apart in the source and are kept apart here.
Key:
osteoblasts = assay: Histomorphometric bone analysis, EL4 study (Example 9); type: in vivo, mice
Procedure: (§1) Histomorphometric analyses were performed on vertebral column specimens collected from 2 months old mice using undecalcified sections using the osteomeasure analysis system (Osteometrics). Lumbar vertebrae were dissected, fixed for 24 hours in 10% formalin, dehydrated in graded ethanol series, and embedded in methyl methacrylate resin according to standard protocols (Chappard et al. (1987); Parfitt et al. (1987)).
(§2) Bone formation rate (BFR) was analyzed by the calcein double-labeling method. Calcein (Sigma) was dissolved in calcein buffer (0.15 M NaCl, 2% NaHCO3) and administered by an intraperitoneal injection of 25 μg/g body weight, 6 days and 2 days before sacrificing the animals. In experiments evaluating survival rates of animals, bone formation rate was not calculated due to the unknown time of death. Unstained 4-μm sections were used for BFR measurements.
(§3) For the analysis of parameters of osteoblast and osteoclast, 4-μm sections were stained with toluidine blue and tartrate-resistant acid phosphatase (TRAP), respectively. Type I collagen content and bone volume over trabecular volume (BV/TV) were analyzed using 7-μm sections by Von Gieson and Von Kossa staining […] respectively in undecalcified sections. Images were taken using a 10× objective on a Leica microscope outfitted with camera. Six to ten animals were analyzed for each group.
Mice were treated orally with LP-533401 (25 or 200 mg per kg of body weight per day) or vehicle. Treatments started 15 days before malignant cell injections in all sets of experiments, and continued for the indicated periods of time. LP-533401 was dissolved in polyethylene glycol (PEG) and 5% dextrose or 2.5% glucose (Sigma), and given daily by oral gavage. Mice treated with vehicle were administered, in the same way as LP533401, a solution of PEG and 5% dextrose or 2.5% glucose, daily, by oral gavage.
Bioluminescence imaging, luciferase intensity measurement, hind-limb paralysis, blood cell counts, bone mass, osteoblast number, bone formation rate and survival were determined as previously described in Examples 2, 3, and 5-7.

serum serotonin [1] = assay: Serum serotonin levels by ELISA, EL4 study (Example 9); type: in vivo, mice; details: leukemic and non-leukemic groups; LP-533401 25 or 200 mg/kg/day oral
Procedure: Mice were treated orally with LP-533401 (25 or 200 mg per kg of body weight per day) or vehicle. Treatments started 15 days before malignant cell injections in all sets of experiments, and continued for the indicated periods of time. LP-533401 was dissolved in polyethylene glycol (PEG) and 5% dextrose or 2.5% glucose (Sigma), and given daily by oral gavage. Mice treated with vehicle were administered, in the same way as LP533401, a solution of PEG and 5% dextrose or 2.5% glucose, daily, by oral gavage. For measurements of serum serotonin levels, mice were briefly exposed to Isoflurane (Baxter) for 30 seconds and blood was collected by cardiac puncture. Similar volumes of blood were collected from different animals for consistency in the clotting times. Serum collection from all mice was done between 9:00 am and 12:00 pm. Blood was allowed to clot on ice for 5 minutes before centrifugation at maximum speed at 4° C. for 10 minutes. The serum supernatant was removed, snap frozen and stored at −80° C. for further analysis. Serum serotonin levels were quantified by ELISA (Serotonin kit, Fitzgerald) according to manufacturer's instructions.

[2] = system: WEHI/3B myelomonocytic leukemia cell line; assay: WEHI/3B murine model of AML, tumor burden at tissue level (Example 12); type: in vivo, mice
Procedure: WEHI/3B, a macrophage-like myelomonocytic leukemia cell line established from inbred BALB/c mice, was used. BALB/cJ mice were inoculated with 1×10^6 Wehi-3 cells.
Mice were sacrificed at pre-determined time points as specified before or upon signs of illness. Each animal was weighed before blood was sampled, and visually examined for tumor development. Spleens were isolated and weighed. Spleens and tissue samples from liver were fixed in 10% neutral formalin solution for 48 hours. Osseous samples (thoracic spine, sternum, pelvis, and stifle joint) were decalcified in Decalcifier System I (Leica Microsystems, Inc.) for 48 h after fixation. All tissues were processed by routine methods and embedded in paraffin Sections of 4 or 5 μm were stained with hematoxylin and eosin (H&E) according to standard procedures.
as §1, §2, §3
Total RNA was isolated from tissues or cultured cells using Trizol, according to the manufacturer's protocol (Invitrogen). Total RNA (2 μg) was treated with DNAse I (Invitrogen), and reverse transcribed at 42° C. with SuperScript II (Invitrogen). The expression of all the genes was measured by real-time quantitative PCR with the SYBR Green Master Mix (Bio-Rad) using β actin or 18s as endogenous control.
BALB/cJ mice purchased from Jackson Laboratory and injected with WEHI/3B, as described in Example 2, were used.
Mice were treated as described in Example 9 and classified as: • Mice with no leukemia treated with a vehicle, i.e., non-leukemic-vehicle-treated (“WT”); • Mice with no leukemia treated with LP-533401, i.e., non-leukemic-LP-533401-treated (“NL-LP”); • Mice with leukemia treated with a vehicle, i.e., leukemic-vehicle-treated (“Leuk-veh”); and • Mice with leukemia treated with LP-533401, i.e., leukemic-LP 533410-treated (“Leuk-LP”).
All mice were sacrificed after 2 weeks for the following assessments: • Serum serotonin levels as measured in Example 9; • Body weight as described in Example 2 • Spleen weight as described in Example 2; • Histological analysis of the femur, spleen and liver as described in Example 2; • Trabecular Bone Volume (Bv/TV) as described in Example 3; • and • Gene Expression analysis by PCR as described in Example 3. Results

serotonin = details: six consecutive doses, cited from earlier work
serum serotonin [3] = assay: Serum serotonin levels, WEHI/3B study (Example 12); type: in vivo; details: non-leukemic mice treated with LP-533401 (NL-LP); BALB/cJ
Procedure: For measurements of serum serotonin levels, mice were briefly exposed to Isoflurane (Baxter) for 30 seconds and blood was collected by cardiac puncture. Similar volumes of blood were collected from different animals for consistency in the clotting times. Serum collection from all mice was done between 9:00 am and 12:00 pm. Blood was allowed to clot on ice for 5 minutes before centrifugation at maximum speed at 4° C. for 10 minutes. The serum supernatant was removed, snap frozen and stored at −80° C. for further analysis. Serum serotonin levels were quantified by ELISA (Serotonin kit, Fitzgerald) according to manufacturer's instructions. […]
All mice were sacrificed after 2 weeks for the following assessments: • Serum serotonin levels as measured in Example 9; • Body weight as described in Example 2 • Spleen weight as described in Example 2; • Histological analysis of the femur, spleen and liver as described in Example 2; • Trabecular Bone Volume (Bv/TV) as described in Example 3; • and • Gene Expression analysis by PCR as described in Example 3. […]

[4] = in vivo; cited from earlier work
[5] = LP-533401 25 or 200 mg/kg/day oral
[6] = among 14 mice treated (WEHI/3B)

Nc1nc(OC(c2ccc(-c3cccc(F)c3)cc2)C(F)(F)F)cc(-c2ccc(C[C@H](N)C(=O)O)cc2)n1 (some centres unmarked) [LP-533401]
bone resorption (osteoblasts; EL4 study): not affected | increase in bone formation rate (osteoblasts; [5]): 30% | increase in bone mass (osteoblasts; [5]): 30% | increase in osteoblast numbers (osteoblasts; [5]): 30% | leukemia-induced decrease in osteoblast numbers, bone formation rate and trabecular bone volume (osteoblasts; leukemic mice (EL4)): inhibited the decrease in osteoblast numbers, bone formation rate, and trabecular bone volume | decrease in serum serotonin levels compared to vehicle-treated animals (serum serotonin [1]): 30% | anemia observed in leukemic mice ([2]; WEHI/3B): inhibited | leukemia infiltration in the liver and spleen ([2]; WEHI/3B): limited leukemia infiltration in the liver and spleen | leukemia-caused decrease in trabecular bone volume, osteoblast numbers and bone formation rate ([2]; WEHI/3B): prevented the decrease | leukemic mice in which megakaryocyte numbers returned to normal ([2]; WEHI/3B): 70% | leukemic mice with normal myeloid:erythroid ratio ([2]; WEHI/3B): 50% | number of leukemia blasts (histology) ([2]; WEHI/3B): reduced number of leukemia blasts | osteoclast numbers ([2]; WEHI/3B): not affected | mice with less than 5% marrow blasts [2, 6]: 71% | number of mice with less than 5% marrow blasts [2, 6]: 10 | expression of osteoblast differentiating genes (osteocalcin, osterix, Runx2, alkaline phosphatase, collagen 1a1) ([2]; femur of leukemic mice (WEHI/3B), PCR): normalize the expression | cyclin D1 and D2 expression in bone (osteoblast proliferation) ([2]; leukemic mice (WEHI/3B)): increase in cyclin D1 and D2 expression | enlargement of the spleen (spleen weight) ([2]; leukemic mice (WEHI/3B)): alleviated | splenic red pulp ([2]; leukemic mice (WEHI/3B)): normal | animals with a blast percentage of 20% or more in the bone marrow ([2]; leukemic mice (WEHI/3B), 2 weeks): 28% | body weight ([2]; leukemic vs non-leukemic animals (WEHI/3B)): weight loss was not observed | serotonin levels in the small intestine lowered (serotonin; 30 mg/kg twice per day): 55% | serotonin levels in the small intestine lowered (serotonin; 90 mg/kg twice per day): 70% | brain-derived serotonin (serotonin; 30 or 90 mg/kg twice per day): unchanged | decrease in serum serotonin levels compared to wild-type mice (serum serotonin [3]): 50% | crossing of the blood-brain barrier [4]: did not cross the blood-brain barrier
